Assay results from PMC12388496, “Discovery of (E)-1,3-Diphenyl-2-Propen-1-One Derivatives as Potent and Orally Active NLRP3 Inflammasome Inhibitors for Colitis” (Molecules, 2025).

How the values were obtained:
[1] = test system: IL-1β secretion in THP-1 cells (NLRP3 inflammasome); experiment: Inhibition of IL-1β secretion in THP-1 cells; format: cell-based; settings: Homo sapiens, three independent experiments
Experimental: Through SAR analysis, we identified compound F14 as the target compound for further investigation. To further validate its activity, the half-inhibitory concentration (IC50) of compound F14 for IL-1β release was determined in the BMDM model. […] To more comprehensively assess the potential of compound F14, we further evaluated its inhibition of IL-1β in THP-1 cells.
Figure 3 F14 inhibits the secretion of IL-1β. (A) Detection of F14 inhibition of IL-1 β secretion in BMDM cells; (B) Detection of F14 inhibition of IL-1 β secretion in THP-1 cells. IC50 calculation and dose-response curve fitting were performed using GraphPad Prism (8.0) software. All data were obtained from three independent experiments.

BMDM cells = experiment: Flow cytometry apoptosis assay kit (pyroptosis) in BMDM cells under LPS/Nigericin; format: cell-based, mouse; settings: vs LPS/Nigericin group, more pronounced at higher concentrations
Excerpt: Pyroptosis is a form of programmed cell death, typically triggered by the activation of inflammasomes within the cell. It is characterized by the rupture of the cell membrane, releasing cellular contents (such as Lactate Dehydrogenase, LDH), which enhances the inflammatory response. Unlike apoptosis, pyroptosis is initiated through the activation of inflammasomes, involving distinct molecular mechanisms, and is often accompanied by cell swelling and rupture. In contrast, apoptosis is triggered by the activation of Caspase-3, leading to systemic degradation within the cell while maintaining the integrity of the cell membrane. The cell undergoes controlled self-degradation without provoking an immune response. […]
Figure 4 F14 inhibits NLRP3 inflammasome activation, leading to cell pyroptosis. […] All values given are best readings. / LPS/Nigericin: Q1-UL 0.83%, Q1-UR 79.53%, Q1-LL 14.81%, Q1-LR 4.83% uncertain / F14 10 μM: Q1-UL 0.52%, Q1-UR 48.44%, Q1-LL 45.87%, Q1-LR 5.17% uncertain / F14 5 μM: Q1-UL 1.05%, Q1-UR 58.47%, Q1-LL 36.16%, Q1-LR 4.32% uncertain / F14 2.5 μM: Q1-UL 0.97%, Q1-UR 69.26%, Q1-LL 24.69%, Q1-LR 5.08% uncertain / The Control plot in panel A (Q1-UL 0.83%, Q1-UR 24.77%, Q1-LL 69.90%, Q1-LR 4.49%) is left out because it is not a substance. / LPS/Nigericin is the stimulus rather than a test compound. […]

NLRP3 inflammasome = NLRP3 inflammasome activation by ATP, MSU and Nigericin in BMDMs (ELISA of IL-1β); format: cell-based, mouse; settings: F14 10 μM; LPS-primed BMDMs stimulated with ATP, MSU or Nigericin
Excerpt: (§1) The NLRP3 inflammasome can be activated by various stimuli, such as microbial toxins and urate crystals. This process plays a central role in the pathogenesis of many inflammatory diseases. To assess whether F14 exerts a broad-spectrum inhibitory effect on NLRP3 inflammasome activation, we used three different activators—ATP, MSU, and Nigericin to stimulate BMDMs. […] Among the inflammasome family, NLRC4 and AIM2 are also protein complexes involved in the innate immune response, playing key roles in inflammatory regulation during infection and tissue damage. Poly (dA:dT) was used to induce AIM2 activation, while S.typhi was employed to stimulate NLRC4 activation. […].
(§2) The LPS concentration was 200 ng/mL to pretreat BMDM cells for 3 h, then F14 (10 μM) was added to treat the cells for 30 min, and then each inducer—Nigericin (10 μM, 0.5 h), ATP (2.5 mM, 0.5 h), MSU (150 μg/mL, 4 h), S.typhi (4 h), and poly-(dA:dT) (0.5 μg/mL, 4 h)—were added for stimulation. (A) F14 has a broad-spectrum inhibitory effect on NLRP3 inflammasome activation. (B) F14 has a specific inhibitory effect on NLRP3 inflammasome activation. Data are presented as the mean ± SEM (n = 3). *** p < 0.001 vs. the model group. NS, not significant.

AIM2 inflammasome = AIM2 inflammasome activation induced by poly (dA:dT) in BMDMs; format: cell-based, mouse; settings: F14 10 μM, LPS-primed BMDMs
Excerpt: as §1, §2

NLRC4 inflammasome = NLRC4 inflammasome activation induced by S.typhi in BMDMs; format: cell-based, mouse; settings: F14 10 μM, LPS-primed BMDMs
Excerpt: The NLRP3 inflammasome can be activated by various stimuli, such as microbial toxins and urate crystals. This process plays a central role in the pathogenesis of many inflammatory diseases. To assess whether F14 exerts a broad-spectrum inhibitory effect on NLRP3 inflammasome activation, we used three different activators—ATP, MSU, and Nigericin to stimulate BMDMs. […] Among the inflammasome family, NLRC4 and AIM2 are also protein complexes involved in the innate immune response, playing key roles in inflammatory regulation during infection and tissue damage. Poly (dA:dT) was used to induce AIM2 activation, while S.typhi was employed to stimulate NLRC4 activation.
as §2

Cc1ccc(C(=O)/C=C/c2cccc(O)c2)c(C)c1 [Compound F14, (E)-1-(2,4-dimethylphenyl)-3-(3-hydroxyphenyl)propyl-2-en-1-one]
IC50 [1]: 880 nM
viable cell percentage and late apoptotic cell percentage (BMDM cells): significantly improved
protein expression levels of mature IL-1β (ELISA) (NLRP3 inflammasome): significantly reduced
activation of AIM2 inflammasome (AIM2 inflammasome): no effect
activation of NLRC4 inflammasome (NLRC4 inflammasome): no effect
